Reference: US20250011792A1, “IRAP INHIBITORS FOR USE IN THE TREATMENT OF INFLAMMATORY DISEASES” (INSTITUT NATIONAL DE LA SANTÉ ET DE LA RECHERCHE MÉDICALE, priority 2021, published 2025)

What was measured:
[1] = tested on: mast cells; experiment: Cytokine secretion by mast cells treated with IRAP inhibitors for 24 h before ionomycin/PMA activation; assay type: cell-based, mouse; conditions: mast cells treated for 24 h prior to ionomycin/PMA activation; data not shown
Method: PCMCs were stimulated with 1 uM ionomycin/10 nM PMA or 100 ng/ml LPS at 37° C. for 6 h for cytokine secretion or with ionomycin/PMA or 10 ug/ml 48/80 for 30 min for histamine measurement.
(§1) Supernatants were collected and histamine was quantified using the Histamine Dynamic HTRF kit (Cisbio). TNF-α, IL-6, or IL-10 were quantified using specific cytokine ELISA kits. Kits were used according to the manufacturer's instructions.
Considering the aminopeptidase function of TRAP, we wondered if its catalytic activity was required for efficient cytokine secretion. To test this, we treated mast cells with the IRAP inhibitors HFI-419, 4u 55 and 22b (a gift from E. Stratikos) for 24 h prior to ionomycin/PMA activation.

[2] = tested on: IRAP wt mice; experiment: Mouse ear challenge with arachidonic acid, cytokines quantified in ear tissue homogenates; assay type: in vivo; conditions: 1 μmol/kg intravenously at 24 h and 15 min prior to ear challenge; ear tissue homogenates normalized to total protein; FIG. 3
Method: IRAP wt mice were injected i.v. with 6 μg HI-419 or vehicle 24 h and 15 min prior to ear challenge. Cytokine concentrations were quantified in ear tissue homogenates and normalized to total protein concentration.
Twenty microliters arachidonic acid (AA) (30 mg/ml in acetone) were applied to the inner and outer surface of one mouse ear, whereas the other ear was left untreated.
One hour after AA application, mice were sacrificed and ears were collected. The ear biopsies were dissociated using the pre-set “Protein” protocol of gentleMACS™ Octo Dissociator (Milteniy Biotec) in 800 μl ice-cold homogenization buffer [(PBS containing 0.4M NaCl, 0.05% Tween-20, 10 mM EDTA and protease inhibitor cocktail complete (Roche)]. The homogenates were cleared by 10 min centrifugation at 5000×g, and the total protein concentration determined in a BCA assay. Histamine or cytokines in the supernatant were quantified as described below.
as §1
(§2) Vehicle or inhibitor at a dose of 1 μmol/kg was administered intravenously at 24 h and 15 min prior to the ear challenge. […] We therefore hypothesized that in addition to blocking its catalytic activity, HI-419 may also affect the stability of IRAP.

[3] = tested on: VAMP3; experiment: Intracellular flow cytometry staining of VAMP3 expression after HFI-419 treatment; assay type: cell-based, mouse; conditions: starting from 24 h of treatment, data not shown
Method: (§3) For TNF-α surface staining, PCMCs were stimulated with 1 μM ionomycin/10 nM PMA or 100 ng/ml LPS at 37° C. for 4 h in the presence of TAPI-1, washed with ice-cold PBS, and incubated at 4° C. with Fcblock (Miltenyi) followed by fluorochrome-conjugated CD117, FcεRI and TNF-α antibodies diluted in PBS-1% BSA. Intracellular staining of cytokines, IRAP and VAMP3 was performed using the BD intracellular staining kit and suitable species-specific fluorescent secondary antibodies (Life technologies).
as §2

[4] = target: T1, IRAP (Mus musculus, UniProt Q8C129); experiment: Intracellular flow cytometry staining of IRAP expression after HFI-419 treatment; assay type: cell-based; conditions: starting from 24 h of treatment, data not shown
T1 construct: endogenous in cells; host or cells: primary mouse mast cells (BMMC / peritoneal cell-derived mast cells) from wt mice
T1 sequence (Q8C129 1-1025): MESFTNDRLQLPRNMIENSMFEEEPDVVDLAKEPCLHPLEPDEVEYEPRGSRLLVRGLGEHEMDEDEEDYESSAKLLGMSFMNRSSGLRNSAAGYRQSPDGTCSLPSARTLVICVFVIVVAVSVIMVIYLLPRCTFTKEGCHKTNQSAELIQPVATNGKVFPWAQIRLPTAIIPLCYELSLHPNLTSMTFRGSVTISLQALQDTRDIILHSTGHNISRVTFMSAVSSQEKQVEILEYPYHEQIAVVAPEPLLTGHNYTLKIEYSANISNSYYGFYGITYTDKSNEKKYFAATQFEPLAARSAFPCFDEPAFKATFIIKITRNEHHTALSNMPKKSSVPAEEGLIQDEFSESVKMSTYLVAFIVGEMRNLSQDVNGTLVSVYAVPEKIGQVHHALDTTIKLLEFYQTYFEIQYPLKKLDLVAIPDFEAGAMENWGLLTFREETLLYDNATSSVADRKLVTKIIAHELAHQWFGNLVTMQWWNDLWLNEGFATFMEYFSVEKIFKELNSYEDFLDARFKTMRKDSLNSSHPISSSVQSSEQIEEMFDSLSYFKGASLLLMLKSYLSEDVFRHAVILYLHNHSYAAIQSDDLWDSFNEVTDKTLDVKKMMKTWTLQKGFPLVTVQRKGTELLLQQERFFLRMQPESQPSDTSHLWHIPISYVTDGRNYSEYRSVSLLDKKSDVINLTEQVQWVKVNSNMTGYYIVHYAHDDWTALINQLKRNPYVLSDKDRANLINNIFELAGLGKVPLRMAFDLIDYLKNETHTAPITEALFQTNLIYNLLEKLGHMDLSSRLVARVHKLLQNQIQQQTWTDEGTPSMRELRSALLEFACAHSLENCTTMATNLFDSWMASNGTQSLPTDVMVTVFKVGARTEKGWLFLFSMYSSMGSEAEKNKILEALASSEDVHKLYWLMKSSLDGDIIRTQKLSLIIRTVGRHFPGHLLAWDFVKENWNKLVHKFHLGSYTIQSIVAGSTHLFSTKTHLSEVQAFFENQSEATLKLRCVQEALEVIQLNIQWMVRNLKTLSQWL
Method: as §3, §2

[5] = tested on: wt cells (mast cells); experiment: TNF-α secretion in the presence of endocytosis inhibitors; assay type: cell-based, mouse; conditions: wt versus IRAPko cells; data not shown
[6] = tested on: IRAP; experiment: Subcellular localization of IRAP under endocytosis inhibition after LPS activation; assay type: cell-based, mouse; conditions: after three hours of LPS activation; data not shown

Row | expression level of IRAP [4] | expression level of IRAP ([4]; listed as HI-419) | Structure (SMILES) | inhibition of IRAP-dependent cytokine secretion in vitro [1] | IL-6 secretion in challenged ear versus vehicle-treated animals [2] | IL-10 secretion in challenged ear versus vehicle-treated animals [2] | TNF-α secretion in challenged ear versus vehicle-treated animals [2] | expression level of VAMP3 [3] | TNF-α secretion [5] | IRAP subcellular localization (re-internalization) [6]
1 | decreased expression levels | reduced | CCOC(=O)C1=C(NC(C)=O)Oc2cc(O)ccc2C1c1cccnc1 (racemic) [HFI-419, (±)-Ethyl-2-acetamido-7-hydroxy-4-(pyridin-3-yl)-4H-chromene-3-carboxylate] | significant inhibition | significantly less | unaffected | significantly less | decreased expression levels |  | 
2 |  |  | CS(=O)(=O)N1CCN(Cc2cc3nc(-c4cccc5[nH]ncc45)nc(N4CCOCC4)c3s2)CC1 [GDC-0941] |  |  |  |  |  | reduce TNF-α secretion specifically in wt cells | 
3 |  |  | O=C(N/N=C/c1ccc(O)c(O)c1)c1cc2ccccc2cc1O [dynasore] |  |  |  |  |  | reduce TNF-α secretion specifically in wt cells | strong plasma membrane staining
